Experiments:
Test in all cases: biochemical
Assay type in all cases: biochemical
[1] = target: 363 human kinases (including Aurora A/B/C) (Homo sapiens, UniProt P09619); conditions: PDGFRb; for remaining activity at 0.1 µM: 100 nM; for remaining activity at 0.1 µM / remaining activity at 0.5 µM: read-out: % Enzyme Activity (relative to DMSO controls)
From the text: (§1) However, the Aurora A/B selectivity ratios derived from our in vitro and in vivo data can be compared to prioritize inhibitors.

[2] = target: 363 human kinases (including Aurora A/B/C) (Homo sapiens, UniProt P49759); conditions: CLK1, [ATP] 2.5 µM; for remaining activity at 0.1 µM: 100 nM; for remaining activity at 0.1 µM / remaining activity at 0.5 µM: read-out: % Enzyme Activity (relative to DMSO controls)
From the text: as §1

[3] = target: 363 human kinases (including Aurora A/B/C) (Homo sapiens, UniProt Q9Y243); conditions: AKT3, [ATP] 50 µM; for remaining activity at 0.1 µM: 100 nM; for remaining activity at 0.1 µM / remaining activity at 0.5 µM: read-out: % Enzyme Activity (relative to DMSO controls)
From the text: as §1

[4] = target: T1, 363 human kinases (including Aurora A/B/C) (Homo sapiens, UniProt O95835); conditions: LATS1; for remaining activity at 0.1 µM: 100 nM; for remaining activity at 0.1 µM / remaining activity at 0.5 µM: read-out: % Enzyme Activity (relative to DMSO controls)
T1 sequence (O95835 1-1130): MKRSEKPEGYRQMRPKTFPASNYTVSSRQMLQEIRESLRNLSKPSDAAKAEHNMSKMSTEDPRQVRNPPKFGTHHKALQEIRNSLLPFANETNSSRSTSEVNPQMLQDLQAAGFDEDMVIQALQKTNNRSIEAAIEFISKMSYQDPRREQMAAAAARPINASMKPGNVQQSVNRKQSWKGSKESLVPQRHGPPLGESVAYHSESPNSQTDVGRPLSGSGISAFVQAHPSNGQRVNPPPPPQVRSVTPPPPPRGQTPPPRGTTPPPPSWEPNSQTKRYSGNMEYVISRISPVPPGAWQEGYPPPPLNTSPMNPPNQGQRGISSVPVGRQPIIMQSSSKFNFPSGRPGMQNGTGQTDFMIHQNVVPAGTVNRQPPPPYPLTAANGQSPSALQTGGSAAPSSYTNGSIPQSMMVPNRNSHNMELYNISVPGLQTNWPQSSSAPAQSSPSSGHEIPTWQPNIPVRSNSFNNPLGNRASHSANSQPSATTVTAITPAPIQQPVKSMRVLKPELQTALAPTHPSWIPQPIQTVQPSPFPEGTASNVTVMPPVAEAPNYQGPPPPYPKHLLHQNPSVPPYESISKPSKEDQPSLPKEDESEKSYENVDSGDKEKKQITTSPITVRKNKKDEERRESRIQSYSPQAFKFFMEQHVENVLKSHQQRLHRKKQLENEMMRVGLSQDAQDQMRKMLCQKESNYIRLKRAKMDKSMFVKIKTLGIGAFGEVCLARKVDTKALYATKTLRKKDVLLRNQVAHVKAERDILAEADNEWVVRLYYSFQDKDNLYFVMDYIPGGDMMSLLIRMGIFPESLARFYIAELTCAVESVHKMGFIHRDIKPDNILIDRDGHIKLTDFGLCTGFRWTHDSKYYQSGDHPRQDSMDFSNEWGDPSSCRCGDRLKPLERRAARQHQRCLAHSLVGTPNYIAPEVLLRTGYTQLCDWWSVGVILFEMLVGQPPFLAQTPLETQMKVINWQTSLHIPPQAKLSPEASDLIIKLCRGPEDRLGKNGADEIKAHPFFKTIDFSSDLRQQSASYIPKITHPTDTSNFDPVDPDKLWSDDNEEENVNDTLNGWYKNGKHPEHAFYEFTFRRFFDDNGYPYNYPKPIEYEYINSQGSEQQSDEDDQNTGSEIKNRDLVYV
From the text: as §1

[5] = target: T2, 363 human kinases (including Aurora A/B/C) (Homo sapiens, UniProt P20794); conditions: MAK; for remaining activity at 0.1 µM: 100 nM; for remaining activity at 0.1 µM / remaining activity at 0.5 µM: read-out: % Enzyme Activity (relative to DMSO controls)
T2 sequence (P20794 1-623): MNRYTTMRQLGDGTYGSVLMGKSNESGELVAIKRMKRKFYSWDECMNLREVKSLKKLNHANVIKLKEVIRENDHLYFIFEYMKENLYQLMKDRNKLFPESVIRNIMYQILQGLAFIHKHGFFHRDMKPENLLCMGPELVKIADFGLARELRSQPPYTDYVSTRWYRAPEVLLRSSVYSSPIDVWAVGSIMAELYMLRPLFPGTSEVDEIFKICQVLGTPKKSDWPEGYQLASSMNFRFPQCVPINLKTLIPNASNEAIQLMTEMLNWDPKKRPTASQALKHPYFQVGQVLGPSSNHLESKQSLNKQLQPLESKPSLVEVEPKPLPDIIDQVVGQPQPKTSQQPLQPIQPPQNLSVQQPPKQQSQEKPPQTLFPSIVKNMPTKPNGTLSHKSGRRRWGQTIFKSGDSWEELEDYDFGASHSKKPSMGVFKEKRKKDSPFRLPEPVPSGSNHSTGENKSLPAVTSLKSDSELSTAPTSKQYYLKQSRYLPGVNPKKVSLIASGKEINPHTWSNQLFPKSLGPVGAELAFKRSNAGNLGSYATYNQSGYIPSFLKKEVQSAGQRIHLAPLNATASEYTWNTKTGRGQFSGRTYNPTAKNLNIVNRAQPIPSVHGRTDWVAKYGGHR
From the text: as §1

[6] = target: 363 human kinases (including Aurora A/B/C) (Homo sapiens, UniProt Q05397); conditions: FAK/PTK2, [ATP] 50 µM; for remaining activity at 0.1 µM: 100 nM; for remaining activity at 0.1 µM / remaining activity at 0.5 µM: read-out: % Enzyme Activity (relative to DMSO controls)
From the text: as §1

[7] = target: 363 human kinases (including Aurora A/B/C) (Homo sapiens, UniProt Q05655); conditions: PKCd; for remaining activity at 0.1 µM: 100 nM; for remaining activity at 0.1 µM / remaining activity at 0.5 µM: read-out: % Enzyme Activity (relative to DMSO controls)
From the text: as §1

[8] = target: 363 human kinases (including Aurora A/B/C) (Homo sapiens, UniProt P24723); conditions: PKCeta; for remaining activity at 0.1 µM: 100 nM; for remaining activity at 0.1 µM / remaining activity at 0.5 µM: read-out: % Enzyme Activity (relative to DMSO controls)
From the text: as §1

[9] = target: 363 human kinases (including Aurora A/B/C) (Homo sapiens, UniProt Q15375); conditions: EPHA7, [ATP] 100 µM; for remaining activity at 0.1 µM: 100 nM; for remaining activity at 0.1 µM / remaining activity at 0.5 µM: read-out: % Enzyme Activity (relative to DMSO controls)
Sequence of 363 human kinases (including Aurora A/B/C) (Homo sapiens, UniProt Q15375) (Q15375 28-998): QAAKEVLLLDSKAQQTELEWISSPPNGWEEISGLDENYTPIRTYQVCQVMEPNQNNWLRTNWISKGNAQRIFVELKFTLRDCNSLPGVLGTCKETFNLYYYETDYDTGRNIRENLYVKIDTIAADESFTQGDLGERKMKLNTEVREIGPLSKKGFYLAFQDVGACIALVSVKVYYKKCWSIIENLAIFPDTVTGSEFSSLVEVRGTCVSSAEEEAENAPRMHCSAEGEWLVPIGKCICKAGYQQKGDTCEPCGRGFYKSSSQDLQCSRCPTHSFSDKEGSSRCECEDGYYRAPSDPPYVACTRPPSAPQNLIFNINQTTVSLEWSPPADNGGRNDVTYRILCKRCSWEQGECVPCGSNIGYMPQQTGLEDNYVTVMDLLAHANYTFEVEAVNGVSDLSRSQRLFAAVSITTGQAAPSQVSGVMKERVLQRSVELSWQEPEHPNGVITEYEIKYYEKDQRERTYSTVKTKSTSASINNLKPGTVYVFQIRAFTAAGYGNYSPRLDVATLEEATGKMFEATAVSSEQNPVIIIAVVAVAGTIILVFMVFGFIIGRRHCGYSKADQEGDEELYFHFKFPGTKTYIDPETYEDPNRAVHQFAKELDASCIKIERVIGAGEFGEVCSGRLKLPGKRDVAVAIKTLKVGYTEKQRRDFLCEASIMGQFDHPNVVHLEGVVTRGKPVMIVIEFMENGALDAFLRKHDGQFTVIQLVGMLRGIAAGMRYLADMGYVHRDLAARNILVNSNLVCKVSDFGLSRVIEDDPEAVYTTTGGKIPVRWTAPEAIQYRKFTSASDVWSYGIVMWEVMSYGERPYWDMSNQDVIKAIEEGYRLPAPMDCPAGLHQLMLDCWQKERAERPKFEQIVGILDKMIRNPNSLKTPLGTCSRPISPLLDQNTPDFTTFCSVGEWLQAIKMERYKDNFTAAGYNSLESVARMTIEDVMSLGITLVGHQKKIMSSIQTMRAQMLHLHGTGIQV
From the text: as §1

Sequence of 363 human kinases (including Aurora A/B/C) (Homo sapiens, UniProt Q05397) (Q05397 whole entry): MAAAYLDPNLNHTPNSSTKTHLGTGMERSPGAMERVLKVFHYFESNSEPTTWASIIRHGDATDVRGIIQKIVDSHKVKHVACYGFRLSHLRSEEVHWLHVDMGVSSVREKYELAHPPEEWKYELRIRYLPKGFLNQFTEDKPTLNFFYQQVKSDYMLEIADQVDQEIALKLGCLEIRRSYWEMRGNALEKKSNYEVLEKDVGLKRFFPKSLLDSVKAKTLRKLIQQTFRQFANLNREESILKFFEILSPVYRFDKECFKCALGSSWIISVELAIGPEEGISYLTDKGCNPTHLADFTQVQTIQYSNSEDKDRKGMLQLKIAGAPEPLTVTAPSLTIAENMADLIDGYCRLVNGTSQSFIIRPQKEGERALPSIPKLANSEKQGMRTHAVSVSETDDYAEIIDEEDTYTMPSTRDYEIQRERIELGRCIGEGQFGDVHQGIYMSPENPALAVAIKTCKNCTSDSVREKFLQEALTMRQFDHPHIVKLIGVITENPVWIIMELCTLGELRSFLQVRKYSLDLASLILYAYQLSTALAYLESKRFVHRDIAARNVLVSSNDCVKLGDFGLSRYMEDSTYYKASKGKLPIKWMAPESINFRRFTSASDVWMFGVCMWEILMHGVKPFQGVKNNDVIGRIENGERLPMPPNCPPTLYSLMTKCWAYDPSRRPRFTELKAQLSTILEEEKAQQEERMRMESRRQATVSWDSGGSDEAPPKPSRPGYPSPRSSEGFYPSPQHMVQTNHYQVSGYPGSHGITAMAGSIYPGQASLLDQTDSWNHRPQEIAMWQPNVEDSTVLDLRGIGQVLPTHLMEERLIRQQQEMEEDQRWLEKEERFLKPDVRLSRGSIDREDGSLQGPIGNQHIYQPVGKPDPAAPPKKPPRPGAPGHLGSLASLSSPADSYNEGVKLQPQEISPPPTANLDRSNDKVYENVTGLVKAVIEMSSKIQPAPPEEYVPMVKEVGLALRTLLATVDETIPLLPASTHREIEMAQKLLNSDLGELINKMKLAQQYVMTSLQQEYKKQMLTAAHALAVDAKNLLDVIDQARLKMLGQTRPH
Sequence of 363 human kinases (including Aurora A/B/C) (Homo sapiens, UniProt P49759) (P49759 whole entry): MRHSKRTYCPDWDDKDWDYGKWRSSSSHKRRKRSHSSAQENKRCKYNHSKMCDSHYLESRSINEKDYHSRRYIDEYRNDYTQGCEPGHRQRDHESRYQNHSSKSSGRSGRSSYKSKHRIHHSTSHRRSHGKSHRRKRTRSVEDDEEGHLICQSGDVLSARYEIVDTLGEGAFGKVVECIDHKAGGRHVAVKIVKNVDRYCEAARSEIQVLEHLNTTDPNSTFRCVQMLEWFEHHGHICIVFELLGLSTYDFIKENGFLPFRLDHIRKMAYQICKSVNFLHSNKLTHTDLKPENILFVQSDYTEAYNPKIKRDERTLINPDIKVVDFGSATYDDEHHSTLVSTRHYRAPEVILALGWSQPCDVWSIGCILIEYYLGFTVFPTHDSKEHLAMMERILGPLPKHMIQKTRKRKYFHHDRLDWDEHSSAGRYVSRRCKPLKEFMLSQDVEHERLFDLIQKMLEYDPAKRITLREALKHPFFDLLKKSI
Sequence of 363 human kinases (including Aurora A/B/C) (Homo sapiens, UniProt Q05655) (Q05655 whole entry): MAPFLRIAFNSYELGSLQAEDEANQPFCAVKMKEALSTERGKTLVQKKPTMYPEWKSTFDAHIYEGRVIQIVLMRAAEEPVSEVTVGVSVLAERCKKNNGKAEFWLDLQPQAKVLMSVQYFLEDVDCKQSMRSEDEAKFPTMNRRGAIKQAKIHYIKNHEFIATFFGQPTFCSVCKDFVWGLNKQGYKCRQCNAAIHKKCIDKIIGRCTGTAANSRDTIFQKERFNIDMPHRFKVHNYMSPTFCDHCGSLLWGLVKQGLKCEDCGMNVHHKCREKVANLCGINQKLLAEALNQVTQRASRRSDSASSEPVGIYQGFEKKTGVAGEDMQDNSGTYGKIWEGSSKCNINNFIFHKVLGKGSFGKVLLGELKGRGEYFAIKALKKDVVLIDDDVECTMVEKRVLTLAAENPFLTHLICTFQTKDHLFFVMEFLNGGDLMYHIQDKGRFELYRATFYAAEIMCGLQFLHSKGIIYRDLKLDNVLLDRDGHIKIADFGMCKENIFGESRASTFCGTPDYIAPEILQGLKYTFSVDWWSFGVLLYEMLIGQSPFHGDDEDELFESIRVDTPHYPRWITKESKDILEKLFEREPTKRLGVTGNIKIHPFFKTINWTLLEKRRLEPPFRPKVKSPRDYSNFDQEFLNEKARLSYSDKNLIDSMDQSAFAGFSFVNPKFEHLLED
Sequence of 363 human kinases (including Aurora A/B/C) (Homo sapiens, UniProt Q9Y243) (Q9Y243 whole entry): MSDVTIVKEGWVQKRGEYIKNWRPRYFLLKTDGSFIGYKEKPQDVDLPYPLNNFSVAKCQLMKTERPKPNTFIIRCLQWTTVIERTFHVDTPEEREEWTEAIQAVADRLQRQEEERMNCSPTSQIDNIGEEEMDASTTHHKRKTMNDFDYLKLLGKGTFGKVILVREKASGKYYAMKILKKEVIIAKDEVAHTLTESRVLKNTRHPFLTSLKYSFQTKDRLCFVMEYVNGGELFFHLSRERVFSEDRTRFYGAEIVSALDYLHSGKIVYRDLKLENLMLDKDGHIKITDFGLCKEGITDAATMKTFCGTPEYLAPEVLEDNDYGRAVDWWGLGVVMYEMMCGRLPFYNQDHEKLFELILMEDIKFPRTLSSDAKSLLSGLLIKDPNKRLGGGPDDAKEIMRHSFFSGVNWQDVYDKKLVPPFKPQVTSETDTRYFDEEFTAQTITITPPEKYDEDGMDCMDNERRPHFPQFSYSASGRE
Sequence of 363 human kinases (including Aurora A/B/C) (Homo sapiens, UniProt P24723) (P24723 whole entry): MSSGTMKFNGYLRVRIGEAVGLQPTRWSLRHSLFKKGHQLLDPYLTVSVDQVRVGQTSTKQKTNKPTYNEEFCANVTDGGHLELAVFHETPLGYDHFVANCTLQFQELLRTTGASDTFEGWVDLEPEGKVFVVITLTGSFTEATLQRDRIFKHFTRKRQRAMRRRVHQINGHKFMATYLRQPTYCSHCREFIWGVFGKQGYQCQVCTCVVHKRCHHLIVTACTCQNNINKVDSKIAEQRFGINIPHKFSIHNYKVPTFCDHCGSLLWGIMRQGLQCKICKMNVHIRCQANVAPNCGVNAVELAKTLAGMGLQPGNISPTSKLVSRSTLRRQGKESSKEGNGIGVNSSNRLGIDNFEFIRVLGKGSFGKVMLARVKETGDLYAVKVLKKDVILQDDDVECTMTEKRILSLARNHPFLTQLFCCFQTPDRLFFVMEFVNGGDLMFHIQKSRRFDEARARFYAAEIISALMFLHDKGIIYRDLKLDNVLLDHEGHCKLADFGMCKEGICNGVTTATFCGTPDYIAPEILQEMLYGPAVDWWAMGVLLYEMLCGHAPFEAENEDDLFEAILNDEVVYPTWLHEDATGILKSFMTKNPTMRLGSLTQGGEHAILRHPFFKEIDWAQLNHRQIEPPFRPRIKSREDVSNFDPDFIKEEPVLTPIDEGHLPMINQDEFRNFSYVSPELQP

Structure (SMILES) | remaining activity at 0.1 µM [1] | remaining activity at 0.1 µM [2] | remaining activity at 0.1 µM [3] | remaining activity at 0.1 µM [4] | remaining activity at 0.1 µM [5] | remaining activity at 0.1 µM [6] | remaining activity at 0.1 µM [7] | remaining activity at 0.1 µM [8] | remaining activity at 0.1 µM [9] | remaining activity at 0.5 µM ([1]; 500 nM) | remaining activity at 0.5 µM ([2]; 500 nM) | remaining activity at 0.5 µM ([3]; 500 nM) | remaining activity at 0.5 µM ([4]; 500 nM) | remaining activity at 0.5 µM ([5]; 500 nM) | remaining activity at 0.5 µM ([6]; 500 nM) | remaining activity at 0.5 µM ([7]; 500 nM) | remaining activity at 0.5 µM ([8]; 500 nM) | remaining activity at 0.5 µM ([9]; 500 nM) | also measured
CCn1cc(-c2ccnc3[nH]c(-c4cccc(CN(C)C)c4)cc23)c(-c2ccc(NC(=O)N(C)C)cc2)n1 [GSK1070916] | 90.4% | 114% | 94.8% | 97.5% | 100% | 95.2% | 201% | 103% | 89% | – | – | – | – | – | – | – | – | – | –
O=C(O)[C@]1(Cc2cccc(Nc3nccs3)n2)CC[C@@H](Oc2cccc(Cl)c2F)CC1 [MK-5108] | 86.7% | 68.1% | 97.4% | 98.5% | 84.8% | 49.8% | 97.8% | 134% | 35.6% | 67.2% | 29.1% | 99.1% | 94.1% | 79.5% | 15.2% | 201% | 115% | 9.76% | –
O=C(c1cccc(Cl)c1F)N1CCN(Cc2cccc(Nc3nccs3)n2)CC1 [MK-8745] | – | – | – | – | – | – | – | – | – | 89.7% | 92.5% | 98.6% | 96.8% | 87% | 60.2% | 141% | 166% | 63.1% | % Enzyme Activity (relative to DMSO controls) ([1]; 500 nM): 88.70%; % Enzyme Activity (relative to DMSO controls) ([2]; 500 nM): 91.67%; % Enzyme Activity (relative to DMSO controls) ([3]; 500 nM): 98.52%; % Enzyme Activity (relative to DMSO controls) ([4]; 500 nM): 96.46%; % Enzyme Activity (relative to DMSO controls) ([5]; 500 nM): 86.85%; % Enzyme Activity (relative to DMSO controls) ([6]; 500 nM): 58.97%; % Enzyme Activity (relative to DMSO controls) ([7]; 500 nM): 130.26%; % Enzyme Activity (relative to DMSO controls) ([8]; 500 nM): 164.83%; % Enzyme Activity (relative to DMSO controls) ([9]; 500 nM): 62.14%
